# Assay results as given in patent publication US12247029B2, “Heterocyclic compounds as class II phosphoinositide 3-kinase inhibitors” (Forschungsverbund Berlin e.V., priority 2018, dated 2025).
# Target: PI3KC2α Δ1-298 (Homo sapiens (Human), UniProt O00443)
# Experiment: ADP-Glo kinase assay with purified PI3KC2α Δ1-298
# Assay type: biochemical
# Settings: not given
# Method: Previous studies have shown that PI3KC2α can utilize phosphatidylinositol (PI) or phosphatidylinositol 4-phosphate [PI(4)P] to produce PI(3)P or PI(3,4)P2 respectively but with a preference for PI(3,4)P2 production. To verify that purified PI3KC2α Δ1-298 is active, a radioactive kinase assay was performed with PI as a substrate and different amounts of purified PI3KC2α Δ1-298. The lipid product [PI(3)P] was separated on TLC plates, and the PI(3)P signal was correlated with the amount of PI3KC2α used (FIG. 4A). […] After having confirmed the activity of purified PI3KC2α Δ1-298, an assay suitable for high content screens in multiwell format (ADP-Glo™ assay) was established. The ADP-Glo™ assay has been used for universal detection of ATP hydrolysis. This assay measures ATP hydrolysis occurring during a kinase reaction. For detection, generated ADP is re-converted into ATP with the […] and converted into light by the Ultra-Glo™ Luciferase reagent. The luminescent signal reports kinase activity (FIG. 4B).
# The ADP-Glo™ assay was first used to determine the linear correlation range of signal with different amounts of kinase, and then to assess the Kms for ATP and for PI. […] Further optimization of this assay allowed us to carry out medium-to-high throughput screening using low amounts of purified enzyme (at fixed concentrations of: ATP=40 μM, PI=200 μM, PI3KC2α A1−298=10 ng/μl).
# Primary screens were performed using the ADP-Glo™ assay in a 384-well format. 37, 224 small molecules were screened for their ability to inhibit kinase activity of PI3KC2α Δ1-298. The concentration of each compound used in the primary screens was 10 μM. Kinase incubations with ATP but without PI were used as negative control samples. This primary screen turned out to be robust with an average z′ factor of 0.57, and therefore judged as successful.
# ADP-Glo kinase assay was performed as described by the manufacturer's protocol. Briefly, the kinase assay was performed with a […] of liver PI/ATP/purified PI3KC2α for 20 min in kinase reaction buffer described above. To deplete the remaining ATP from the reaction, 5 μl of […] was added to the kinase reaction mixture and incubated for 40 min. For detection, the generated ADP is re-converted into ATP and converted into light by the Ultra-Glo™ luciferase in kinase detection reagent. The luminescent signal positively correlates with kinase activity. All reactions are performed in Corning® 384 well-white plates.
# Chain of PI3KC2α Δ1-298 (O00443 299-1686): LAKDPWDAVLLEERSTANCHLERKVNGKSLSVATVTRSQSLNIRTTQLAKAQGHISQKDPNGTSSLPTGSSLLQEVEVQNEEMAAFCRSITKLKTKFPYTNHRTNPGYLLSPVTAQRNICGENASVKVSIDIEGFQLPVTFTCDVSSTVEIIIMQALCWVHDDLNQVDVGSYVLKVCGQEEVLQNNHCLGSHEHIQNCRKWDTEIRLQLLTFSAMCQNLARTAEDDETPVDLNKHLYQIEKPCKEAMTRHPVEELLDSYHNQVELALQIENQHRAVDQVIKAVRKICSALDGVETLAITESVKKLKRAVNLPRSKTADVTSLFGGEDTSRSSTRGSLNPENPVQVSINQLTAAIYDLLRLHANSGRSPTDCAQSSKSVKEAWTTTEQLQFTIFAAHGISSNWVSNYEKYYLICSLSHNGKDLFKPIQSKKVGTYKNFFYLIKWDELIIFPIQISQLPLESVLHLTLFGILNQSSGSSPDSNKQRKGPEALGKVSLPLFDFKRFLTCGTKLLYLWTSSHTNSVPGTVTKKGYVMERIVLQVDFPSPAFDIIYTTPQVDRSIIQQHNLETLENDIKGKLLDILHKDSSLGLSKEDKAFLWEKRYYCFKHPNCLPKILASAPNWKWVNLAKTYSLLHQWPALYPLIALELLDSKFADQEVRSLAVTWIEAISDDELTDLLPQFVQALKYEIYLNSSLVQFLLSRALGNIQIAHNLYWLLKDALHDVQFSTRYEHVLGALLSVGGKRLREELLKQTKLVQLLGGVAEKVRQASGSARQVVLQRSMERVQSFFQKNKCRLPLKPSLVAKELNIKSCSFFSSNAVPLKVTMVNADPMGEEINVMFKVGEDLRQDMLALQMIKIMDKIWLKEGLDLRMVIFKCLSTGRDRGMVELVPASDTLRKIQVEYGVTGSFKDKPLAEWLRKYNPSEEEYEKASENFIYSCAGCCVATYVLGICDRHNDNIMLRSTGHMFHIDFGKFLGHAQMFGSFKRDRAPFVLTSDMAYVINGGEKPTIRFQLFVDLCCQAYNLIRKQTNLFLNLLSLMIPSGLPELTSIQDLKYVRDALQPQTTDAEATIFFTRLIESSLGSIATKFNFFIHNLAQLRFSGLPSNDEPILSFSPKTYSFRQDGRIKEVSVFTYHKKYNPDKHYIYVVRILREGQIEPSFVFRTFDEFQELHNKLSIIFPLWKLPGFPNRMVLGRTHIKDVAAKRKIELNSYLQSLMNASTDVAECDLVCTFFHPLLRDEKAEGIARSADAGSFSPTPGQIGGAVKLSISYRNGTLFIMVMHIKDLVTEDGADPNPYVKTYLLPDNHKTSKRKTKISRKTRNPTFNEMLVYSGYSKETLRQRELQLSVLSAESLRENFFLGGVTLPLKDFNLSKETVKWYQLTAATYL
"PI3KC2α inhibitory activity (in words, SAR)",inhibition at 10 µM,Compound
did not disrupt the activity,,"CC(Sc1nc2nccnc2c(=O)n1CCc1cccc(F)c1)C(=O)Nc1nccs1 (centres unmarked) [Example Compound 16, 2-((3-(3-Fluorophenethyl)-4-oxo-3,4-dihydropteridin-2-yl)thio)-N-(thiazol-2-yl)propanamide]"
,100%,"O=C(CSc1nc2nccnc2c(=O)n1CCc1ccccc1)Nc1nc(-c2cccc([N+](=O)[O-])c2)cs1 [Example Compound 58, N-(4-(3-Nitrophenyl)thiazol-2-yl)-2-((4-oxo-3-phenethyl-3,4-dihydropteridin-2-yl)thio)acetamide]"
functional compounds,,"O=C(CSc1nc2nccnc2c(=O)n1CCc1ccccc1)Nc1nc(-c2ccccc2)cs1 [Example Compound 10, 2-((4-Oxo-3-phenethyl-3,4-dihydropteridin-2-yl)thio)-N-(4-phenylthiazol-2-yl)acetamide]"
,35%,"O=C(CSc1nc2nccnc2c(=O)n1CCc1ccccc1)c1ccccc1F [Example Compound 64, 2-((2-(2-Fluorophenyl)-2-oxoethyl)thio)-3-phenethylpteridin-4(3H)-one]"

# Same assay, conditions: read-out: IC50 (PI3KC2α; ADP-Glo™ assay)
row,IC50,Compound
1,26000 nM,"O=C(CSc1nc2nccnc2c(=O)n1CCc1ccccc1)Nc1nc(-c2ccc3ccccc3c2)cs1 [Example Compound 48, N-(4-(Naphthalen-2-yl)thiazol-2-yl)-2-((4-oxo-3-phenethyl-3,4-dihydropteridin-2-yl)thio)acetamide]"
2,2000 nM,"O=C(CSc1nc2nccnc2c(=O)n1CCc1ccccc1)Nc1ncccn1 [Example Compound 20, 2-((4-Oxo-3-phenethyl-3,4-dihydropteridin-2-yl)thio)-N-(pyrimidin-2-yl)acetamide]"
3,820 nM,"O=C(CSc1nc2ncccc2c(=O)n1CCc1ccccc1)Nc1nccs1 [Example Compound 54, 2-((4-Oxo-3-phenethyl-3,4-dihydropyrido[2,3-d]pyrimidin-2-yl)thio)-N-(thiazol-2-yl)acetamide]"
4,4000 nM,"O=c1c2nccnc2nc(SCc2nc3ccccc3s2)n1CCc1ccccc1 [Example Compound 62, 2-((Benzo[d]thiazol-2-ylmethyl)thio)-3-phenethylpteridin-4(3H)-one]"
5,210 nM,"O=C(CSc1nc2nccnc2c(=O)n1CCc1ccc(O)cc1)Nc1nccs1 [Example Compound 95, 2-((3-(4-Hydroxyphenethyl)-4-oxo-3,4-dihydropteridin-2-yl)thio)-N-(thiazol-2-yl)acetamide]"
6,5200 nM,"CC(Sc1nc2nccnc2c(=O)n1CCc1cccc(F)c1)C(=O)Nc1nccs1 (centres unmarked) [Example Compound 16, 2-((3-(3-Fluorophenethyl)-4-oxo-3,4-dihydropteridin-2-yl)thio)-N-(thiazol-2-yl)propanamide]"
7,1500 nM,"O=C(CSc1nc2nccnc2c(=O)n1CCc1ccccc1)Nc1nc(-c2cccc(F)c2)cs1 [Example Compound 26, N-(4-(3-Fluorophenyl)thiazol-2-yl)-2-((4-oxo-3-phenethyl-3,4-dihydropteridin-2-yl)thio)acetamide]"
8,130 nM,"CS(=O)(=O)Nc1cccc(-c2csc(NC(=O)CSc3nc4nccnc4c(=O)n3CCc3ccccc3)n2)c1 [Example Compound 12, N-(4-(3-(Methylsulfonamido)phenyl)thiazol-2-yl)-2-((4-oxo-3-phenethyl-3,4-dihydropteridin-2-yl)thio)acetamide]"
9,3300 nM,"O=C(CSc1nc2nccnc2c(=O)n1CCc1ccccc1)Nc1ccccc1 [Example Compound 22, 2-((4-Oxo-3-phenethyl-3,4-dihydropteridin-2-yl)thio)-N-phenylacetamide]"
10,2900 nM,"N#Cc1ccc(-c2csc(NC(=O)CSc3nc4nccnc4c(=O)n3CCc3ccccc3)n2)cc1 [Example Compound 50, N-(4-(4-Cyanophenyl)thiazol-2-yl)-2-((4-oxo-3-phenethyl-3,4-dihydropteridin-2-yl)thio)acetamide]"
11,23000 nM,"Cc1nc(CSc2nc3nccnc3c(=O)n2CCc2ccccc2)[nH]c1C [Example Compound 77, 2-(((4,5-Dimethyl-1H-imidazol-2-yl)methyl)thio)-3-phenethylpteridin-4(3H)-one]"
12,2800 nM,"O=C(CSc1nc2nccnc2c(=O)n1CCc1ccccc1)Nc1ncco1 [Example Compound 14, N-(Oxazol-2-yl)-2-((4-oxo-3-phenethyl-3,4-dihydropteridin-2-yl)thio)acetamide]"
13,1260 nM,"O=C(CSc1nc2nccnc2c(=O)n1CCc1ccccc1)Nc1nc(-c2ccccc2)cs1 [Example Compound 10, 2-((4-Oxo-3-phenethyl-3,4-dihydropteridin-2-yl)thio)-N-(4-phenylthiazol-2-yl)acetamide]"
14,2600 nM,"COC(=O)c1ccc2[nH]c(CSc3nc4nccnc4c(=O)n3CCc3ccccc3)nc2c1 [Example Compound 75, Methyl 2-(((4-oxo-3-phenethyl-3,4-dihydropteridin-2-yl)thio)methyl)-1H-benzo[d]imidazole-5-carboxylate]"
15,1800 nM,"O=c1c2nccnc2nc(SCc2nc3ccccc3[nH]2)n1[C@@H]1C[C@H]1c1ccccc1 (relative stereo) [Example Compound 99, trans-2-(((1H-Benzo[d]imidazol-2-yl)methyl)thio)-3-(2-phenylcyclopropyl)pteridin-4(3H)-one]"
16,3500 nM,"O=C(CSc1nc2nccnc2c(=O)n1CCc1ccccc1)Nc1nc(C(=O)N2CCOCC2)cs1 [Example Compound 25, N-(4-(Morpholine-4-carbonyl)thiazol-2-yl)-2-((4-oxo-3-phenethyl-3,4-dihydropteridin-2-yl)thio)acetamide]"
17,5800 nM,"Cc1ccc(-c2csc(NC(=O)CSc3nc4nccnc4c(=O)n3CCc3ccccc3)n2)s1 [Example Compound 30, N-(4-(5-Methylthiophen-2-yl)thiazol-2-yl)-2-((4-oxo-3-phenethyl-3,4-dihydropteridin-2-yl)thio)acetamide]"
18,920 nM,"CS(=O)(=O)c1ccc(-n2c(SCc3nc4ccccc4[nH]3)nc3nccnc3c2=O)cc1 [Example Compound 79, 2-(((1H-Benzo[d]imidazol-2-yl)methyl)thio)-3-(4-(methylsulfonyl)phenyl)pteridin-4(3H)-one]"
19,1500 nM,"Cn1ncc2c(=O)[nH]c(CSc3nc4nccnc4c(=O)n3CCc3ccccc3)nc21 [Example Compound 71, 2-(((1-Methyl-4-oxo-4,5-dihydro-1H-pyrazolo[3,4-d]pyrimidin-6-yl)methyl)thio)-3-phenethylpteridin-4(3H)-one]"
20,9500 nM,"CS(=O)(=O)c1ccc(-n2c(SCC(=O)Nc3nccs3)nc3nccnc3c2=O)cc1 [Example Compound 78, 2-((3-(4-(Methylsulfonyl)phenyl)-4-oxo-3,4-dihydropteridin-2-yl)thio)-N-(thiazol-2-yl)acetamide]"
21,1700 nM,"C[C@@H](c1ccccc1)n1c(SCC(=O)Nc2nccs2)nc2nccnc2c1=O [Example Compound 89, (S)-2-((4-Oxo-3-(1-phenylethyl)-3,4-dihydropteridin-2-yl)-thio)-N-(thiazol-2-yl) acetamide]"
22,3400 nM,"O=C(CSc1nc2nccnc2c(=O)n1CCc1ccccc1)Nc1nc2c(F)cc(F)cc2s1 [Example Compound 57, N-(4,6-Difluorobenzo[d]thiazol-2-yl)-2-((4-oxo-3-phenethyl-3,4-dihydropteridin-2-yl)thio)acetamide]"
23,< 50000 nM,"O=C(CSc1nc2nccnc2c(=O)n1Cc1ccccc1)Nc1nccs1 [Example Compound 42, 2-((3-Benzyl-4-oxo-3,4-dihydropteridin-2-yl)thio)-N-(thiazol-2-yl)acetamide]"
24,2400 nM,"COc1cccc(-c2csc(NC(=O)CSc3nc4nccnc4c(=O)n3CCc3ccccc3)n2)c1 [Example Compound 31, N-(4-(3-Methoxyphenyl)thiazol-2-yl)-2-((4-oxo-3-phenethyl-3,4-dihydropteridin-2-yl)thio)acetamide]"
25,320 nM,"COC(=O)[C@H]1C[C@H](n2c(SCc3nc4ccccc4[nH]3)nc3nccnc3c2=O)C1 [Example Compound 92, trans-Methyl-3-(2-(((1H-benzo[d]imidazol-2-yl)methyl)thio)-4-oxo-pteridin-3(4H)-yl)cyclobutane-1-carboxylate]"
26,1700 nM,"CS(=O)(=O)Nc1ccc(-c2csc(NC(=O)CSc3nc4nccnc4c(=O)n3CCc3ccccc3)n2)cc1 [Example Compound 2, N-(4-(4-(Methylsulfonamido)phenyl)thiazol-2-yl)-2-((4-oxo-3-phenethyl-3,4-dihydropteridin-2-yl)thio)acetamide]"
27,610 nM,"CNC(=O)c1ccc(-n2c(SCc3nc4ccccc4[nH]3)nc3nccnc3c2=O)cc1 [Example Compound 82, 4-(2-(((1H-Benzo[d]imidazol-2-yl)methyl)thio)-4-oxopteridin-3(4H)-yl)-N-methylbenzamide]"
28,12000 nM,"O=C(CSc1nc2nccnc2c(=O)n1C1CC1c1ccccc1)Nc1nccs1 (centres unmarked) [Example Compound 21, 2-((4-Oxo-3-(2-phenylcyclopropyl)-3,4-dihydropteridin-2-yl)thio)-N-(thiazol-2-yl)acetamide]"
